According to US10611760B2, “Therapeutic compounds as inhibitors of the orexin-1 receptor” (C4X Discovery Limited, priority 2014, dated 2020):

Tests used:
Format in all cases: cell-based
hOX2R [1] = biological target: T1, hOX2R (Homo sapiens, UniProt O43614); assay: Whole cell FLIPR functional assay, comparison with reference compounds, hOX2R; set-up: expressed in transfected cells; conditions: read-out: hOX2R pIC50 (converted)
T1 sequence (O43614 1-444): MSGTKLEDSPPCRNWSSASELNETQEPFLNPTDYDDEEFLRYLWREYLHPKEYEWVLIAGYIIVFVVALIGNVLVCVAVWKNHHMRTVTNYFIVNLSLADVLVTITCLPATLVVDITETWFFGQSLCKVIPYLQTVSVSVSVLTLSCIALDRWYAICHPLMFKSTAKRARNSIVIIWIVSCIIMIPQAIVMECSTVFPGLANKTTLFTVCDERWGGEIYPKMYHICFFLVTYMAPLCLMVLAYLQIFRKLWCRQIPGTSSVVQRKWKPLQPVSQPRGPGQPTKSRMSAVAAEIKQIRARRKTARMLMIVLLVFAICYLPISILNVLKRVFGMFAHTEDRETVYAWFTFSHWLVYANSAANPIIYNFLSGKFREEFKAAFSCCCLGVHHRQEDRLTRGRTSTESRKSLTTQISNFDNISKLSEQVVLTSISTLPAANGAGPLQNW
From the text: (§1) As indicated herein, by whole cell FLIPR functional assay data and by comparison with reference compounds not claimed within the present invention, the compounds of the present invention provide increased selectivity for the orexin-1 receptor over the orexin-2 receptor. The increased selectivity for the orexin-1 receptor over the orexin-2 receptor in the whole cell FLIPR functional assay provides enhanced predictive value for determining in vivo efficacy. Increasing the functional selectivity for the orexin-1 receptor reduces the potential for dual receptor antagonism in vivo. Such greater functional selectivity may provide benefits over other orexin receptor antagonists that are known in the art.

hOX1R [2] = biological target: T2, hOX1R (Homo sapiens, UniProt O43613); assay: Whole cell FLIPR functional assay, comparison with reference compounds, hOX1R; set-up: expressed in transfected cells; conditions: for Selectivity: orexin-1 receptor over orexin-2 receptor; for IC50: read-out: hOX1R pIC50 (converted)
T2 sequence (O43613 1-425): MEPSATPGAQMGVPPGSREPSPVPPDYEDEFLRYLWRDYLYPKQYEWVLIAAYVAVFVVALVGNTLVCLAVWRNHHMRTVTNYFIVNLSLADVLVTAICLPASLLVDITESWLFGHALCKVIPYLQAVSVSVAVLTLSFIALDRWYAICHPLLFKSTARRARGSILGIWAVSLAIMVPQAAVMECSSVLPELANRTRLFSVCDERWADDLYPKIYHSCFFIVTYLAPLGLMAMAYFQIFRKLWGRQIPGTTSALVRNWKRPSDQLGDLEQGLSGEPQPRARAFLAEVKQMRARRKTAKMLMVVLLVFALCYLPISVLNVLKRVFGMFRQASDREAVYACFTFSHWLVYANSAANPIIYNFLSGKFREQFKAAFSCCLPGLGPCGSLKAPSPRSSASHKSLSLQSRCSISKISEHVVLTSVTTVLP
From the text: as §1

orexin-1 = biological target: T3, orexin-1 (Homo sapiens, UniProt O43613); assay: Antagonism against orexin-1 in the aforementioned (above identified) intracellular calcium assays
T3 construct: expressed in transfected cells
T3 sequence (O43613 1-425): T2 sequence (O43613 1-425)
From the text: Antagonism against orexin receptors has been measured for each example compound using at least one of the following procedures. […] These values may fluctuate depending on the daily cellular assay performance. Fluctuations of this kind are known to those skilled in the art. […] Data highlighted with an asterix (*) is derived from a single experiment, otherwise all data reported is an average of at least two independant replicate experiments. […]

hOX1R [3] = biological target: T2, hOX1R; assay: Intracellular calcium measurements using division-arrested cells, OX1; conditions: agonist orexin A at 2×EC50, * = single experiment, otherwise average of at least two, read-out: pIC50 OX1 (converted)
Outline: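 Division-arrested cells expressing human OX1 or OX2 were seeded for 16 h, then loaded with Calcium 5 dye plus probenecid for 1 h at 37 °C. Compounds in HEPES-buffered HBSS with 0.1% BSA, pH 7.4, top final concentration 10 μM, were added 10 min before the FlexStation calcium read.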

hOX1R [4] = biological target: T2, hOX1R; assay: Intracellular calcium measurements using stable-replicating cells, Method A, OX1; conditions: orexin-A at 4×EC50, * = single experiment, read-out: pIC50 OX1 (converted)
Experimental: (§2) Intracellular Calcium Measurements Using Stable-replicating Cells:
(§3) Method A (Table 2): Test compounds are prepared as 10 mM stock solutions in DMSO, warmed briefly for 20 seconds at 37° C. and serially diluted in half log concentrations with DMSO followed by dilution with assay buffer (HBSS (Sigma-Aldrich, H8264) containing 10 mM HEPES (Invitrogen, 15630080) and pH adjusted to 7.4) to a top final assay concentration of 10 μM.
(§4) Human OX1 (CT-A674) and human OX2 (CT-A675) receptor-expressing stable-replicating cells are grown in a culture medium, Ham F12 (Invitrogen, 31765-035) containing 10% fetal bovine serum (Invitrogen, 16000044), 1% non-essential amino acids (Invitrogen, 11140-050), 100 U/mL Penicillin/Streptomycin (Invitrogen, 15140-122) and G418 (Invitrogen, 11811023) at a concentration of 400 μg/mL. The cells are seeded at a density of 7,000 cells/well into black, clear bottom 384-well plates (Corning, 3683) and incubated at 37° C. in air supplemented with 5% CO2 for 16 hrs.
(§5) Loading dye (25 μL/well), prepared from a FLIPR Calcium 6 Assay kit (Molecular Devices, R8190-Explorer) according to the manufacturer's instructions, and the serially diluted test compounds (10 μL/well) are added to the plate. The plate is then incubated for 30 mins at 37° C. in 5% CO2, then for 30 mins at ambient temperature and placed into a FlexStation III reader.

hOX2R [5] = biological target: T1, hOX2R; assay: Intracellular calcium measurements using stable-replicating cells, Method B (CHO cells, FLIPR Tetra), OX2; conditions: orexin A at EC75, read-out: pIC50 OX2 (converted)
hOX2R [6] = biological target: T1, hOX2R; assay: Intracellular calcium measurements using stable-replicating cells, Method A, OX2; conditions: orexin-A at 4×EC50, * = single experiment, read-out: pIC50 OX2 (converted)
Experimental: as §2, §3, §4, §5

hOX1R [7] = biological target: T2, hOX1R; assay: Intracellular calcium measurements using stable-replicating cells, Method B (CHO cells, FLIPR Tetra), OX1; conditions: orexin A at EC75, read-out: pIC50 OX1 (converted)

In the case of `CC(C)[C@H](CNc1ccc(Cl)cn1)N(C)C(=O)c1ccccc1-c1ccccc1`, the IC50 (hOX2R [1]) is reported as 2000 nM, the Selectivity (hOX1R [2]) is reported as “Selectivity 1.9x” and the IC50 (hOX1R [2]) is reported as 1000 nM.

`CN(CCNc1ccc(Cl)cn1)C(=O)c1ccccc1-c1ccccc1` was tested, and the IC50 (hOX2R [1]) was 79.4 nM, the Selectivity (hOX1R [2]) was “Selectivity 1.1x” and the IC50 (hOX1R [2]) was 63.1 nM.

Work on `CC[C@@H](CNc1ccc2nccn2c1)N(C)C(=O)c1cc(Cl)ccc1-n1nccn1` [(S)-5-chloro-N-(1-(imidazo[1,2-a]pyridin-6-ylamino)butan-2-yl)-N-methyl-2-(2H-1,2,3-triazol-2-yl)benzamide] yielded an IC50 (orexin-1) of over 10 µM.

`CC[C@@H](COc1nc2ccccc2n1C)NC(=O)c1cc(C)ccc1-n1nccn1` [(S)-5-methyl-N-(1-((1-methyl-1H-benzo[d]imidazol-2-yl)oxy)butan-2-yl)-2-(2H-1,2,3-triazol-2-yl)benzamide] gave an IC50 (orexin-1) of over 10 µM.

For `CC[C@@H](CNc1ncc(C(F)(F)F)cn1)N(C)C(=O)c1nc(C(C)(C)O)ccc1-n1nccn1` [(S)-6-(2-hydroxypropan-2-yl)-N-methyl-3-(2H-1,2,3-triazol-2-yl)-N-(1-((5-(trifluoromethyl)pyrimidin-2-yl)amino)butan-2-yl)picolinamide], the IC50 (orexin-1) was over 10 µM.

`CCOC(=O)c1ccc(NC[C@H](CC)N(C)C(=O)c2cc(Cl)ccc2-n2nccn2)nc1` [(S)-ethyl 6-((2-(5-chloro-N-methyl-2-(2H-1,2,3-triazol-2-yl)benzamido)butyl)amino) nicotinate] gave an IC50 (orexin-1) of over 10 µM.

In the case of `CC[C@@H](COc1nc2ccccc2n1C)N(C)C(=O)c1cc(C)ccc1-n1nccn1` [(S)—N,5-dimethyl-N-(1-((1-methyl-1H-benzo[d]imidazol-2-yl)oxy)butan-2-yl)-2-(2H-1,2,3-triazol-2-yl)benzamide], the IC50 (orexin-1) is reported as over 10 µM.

With `CC[C@@H](CNc1ccc(Cl)cn1)NC(=O)c1cc(C)ccc1N1CCN(C)CC1` [(S)—N-(1-((5-chloropyridin-2-yl)amino)butan-2-yl)-5-methyl-2-(4-methylpiperazin-1-yl)benzamide] the IC50 (orexin-1) was over 10 µM.

In the case of `CC[C@@H](CNc1ccc(Cl)cn1)NC(=O)c1cc(C)ccc1N1CCOCC1` [(S)—N-(1-((5-chloropyridin-2-yl)amino)butan-2-yl)-5-methyl-2-morpholinobenzamide], the IC50 (orexin-1) is reported as over 10 µM.

Molecule `CC[C@@H](CNc1ccc(Cl)cn1)N(C)C(=O)c1nc(C)ncc1-n1nccn1` [(S)—N-(1-((5-chloropyridin-2-yl)amino)butan-2-yl)-N,2-dimethyl-5-(2H-1,2,3-triazol-2-yl)pyrimidine-4-carboxamide] has an IC50 (orexin-1) of over 10 µM.

In the case of `CC[C@@H](CNc1ccc(Cl)cn1)N(C)C(=O)c1cc(C)ccc1N1CCN(C)CC1` [(S)—N-(1-((5-chloropyridin-2-yl)amino)butan-2-yl)-N,5-dimethyl-2-(4-methylpiperazin-1-yl)benzamide], the IC50 (orexin-1) is reported as over 10 µM.

Work on `CC[C@@H](CNc1ccc(Cl)cn1)N(C)C(=O)c1cc(C(F)(F)F)ccc1-n1ccnn1` [(S)—N-(1-((5-chloropyridin-2-yl)amino)butan-2-yl)-N-methyl-2-(1H-1,2,3-triazol-1-yl)-5-(trifluoromethyl)benzamide] yielded an IC50 (orexin-1) of 4.9 µM.

Work on `CC[C@@H](CNC(=O)c1ccccn1)N(C)C(=O)c1cc(Cl)ccc1-n1nccn1` [(S)—N-(2-(5-chloro-N-methyl-2-(2H-1,2,3-triazol-2-yl)benzamido)butyl)picolinamide] yielded an IC50 (orexin-1) of over 10 µM.

`CC(C)[C@@H](CNc1ccc(Cl)cn1)N(C)C(=O)c1ccccc1-c1ccccc1` [Example 10, (S)—N-(1-((5-chloropyridin-2-yl)amino)-3-methylbutan-2-yl)-N-methyl-[1,1′-biphenyl]-2-carboxamide] was tested, and the IC50 (hOX1R [3]) was 79.4 nM, the IC50 (hOX2R [1]) was 6310 nM and the Selectivity (hOX1R [2]) was “Selectivity 80x”. For the same molecule, the IC50 (hOX1R [2]) was 79.4 nM.

Work on `CC[C@@H](CNc1ncc(C(F)(F)F)cn1)N(C)C(=O)c1nc(C)ccc1-n1nccn1` [Example 46, (S)—N,6-dimethyl-3-(2H-1,2,3-triazol-2-yl)-N-(1-((5-(trifluoromethyl)pyrimidin-2-yl)amino)butan-2-yl)picolinamide] yielded an IC50 (hOX1R [4]) of 31.6 nM, an IC50 (hOX2R [5]) of over 10000 nM and an IC50 (hOX2R [6]) of over 10000 nM. The IC50 (hOX1R [3]) was 20 nM and the IC50 (hOX1R [7]) was 3.16 nM.

`CC[C@@H](CNc1cnc(C(F)(F)F)cn1)N(C)C(=O)c1nc(C)ccc1-n1nccn1` [Example 47, (S)—N,6-dimethyl-3-(2H-1,2,3-triazol-2-yl)-N-(1-((5-(trifluoromethyl)pyrazin-2-yl)amino)butan-2-yl)picolinamide] gave an IC50 (hOX1R [4]) of 3.98 nM, an IC50 (hOX2R [5]) of over 3980 nM and an IC50 (hOX2R [6]) of over 7940 nM. It also gave an IC50 (hOX1R [3]) of 31.6 nM and an IC50 (hOX1R [7]) of 2.51 nM.

`CC[C@@H](CNc1ncc(C(F)(F)F)cn1)N(C)C(=O)c1cccc2cccnc12` [Example 79, (S)—N-methyl-N-(1-((5-(trifluoromethyl)pyrimidin-2-yl)amino)butan-2-yl)quinoline-8-carboxamide] showed an IC50 (hOX1R [4]) of 100 nM, an IC50 (hOX2R [5]) of 2510 nM and an IC50 (hOX2R [6]) of 1580 nM. The IC50 (hOX1R [7]) was 79.4 nM.

`CC[C@@H](CNc1ncc(C(F)(F)F)cn1)N(C)C(=O)c1cc(Cl)cc2cccnc12` [Example 80, (S)-6-chloro-N-methyl-N-(1-((5-(trifluoromethyl)pyrimidin-2-yl)amino)butan-2-yl)quinoline-8-carboxamide] showed an IC50 (hOX1R [4]) of 25.1 nM, an IC50 (hOX2R [5]) of 316 nM and an IC50 (hOX2R [6]) of 200 nM. It also gave an IC50 (hOX1R [7]) of 10 nM.

`CC[C@@H](CNc1ncc(C(F)(F)F)cn1)N(C)C(=O)c1nc(N(C)C)cc2ccccc12` [Example 81, (S)-3-(dimethylamino)-N-methyl-N-(1-((5-(trifluoromethyl)pyrimidin-2-yl)amino)butan-2-yl)isoquinoline-1-carboxamide] showed an IC50 (hOX1R [4]) of 39.8 nM, an IC50 (hOX2R [5]) of 251 nM and an IC50 (hOX2R [6]) of 251 nM. The IC50 (hOX1R [7]) was 5.01 nM.

Molecule `Cc1ccc(-n2nccn2)c(C(=O)N(C)C(CNc2ccc(Cl)cn2)C2COC2)c1` (centres unmarked) [N-(2-((5-chloropyridin-2-yl)amino)-1-(oxetan-3-yl)ethyl)-N,5-dimethyl-2-(2H-1,2,3-triazol-2-yl)benzamide] has an IC50 (orexin-1) of over 10 µM.
